From patent publication US12036212B2, “Enhancement of tumor response to chemotherapy by activation of the asmase/ceramide pathway through timed administration of a short-acting anti-angiogenic agent” (Memorial Sloan-Kettering Cancer Center, priority 2014, dated 2024)

Experiments:
[1] = tested on: HCT116 tumors; assay: Tumor response in vivo, HCT116 tumors; set-up: species or system mice
Description: Human HCT-116 colon cancer cells and MCA/129 murine sarcoma cells were maintained in DMEM with 10% fetal bovine serum, with 100 u/ml penicillin and 100 μg/ml streptomycin. Cells were grown as monolayers in 75 cm^2 culture flasks at 37° C. in 10% CO2 humidified incubators. Cells were trypsinized, washed in PBS and diluted in Matrigel/PBS solution (40:60 v/v) for HCT-116 xenografts or in PBS for MCA/129 syngeneic tumor grafts. Cells (3×10^6 for HCT-116 or 1×10^6 for MCA129) were injected subcutaneously into the flanks of mice (Garcia-Barros et al. Science 300, 1155-1159, 2003).
SCID^asmase+/+ and SCID^asmase−/− mice harboring HCT-116 tumors (50-100 mm^3) were treated with three i.p. injections of 35-50 mg/kg etoposide (Novaplus®), or 15-25 mg/kg paclitaxel (Hospira), or 1-6 mg/kg cisplatin (APP Pharmaceuticals, LLC) in a bi-weekly schedule with or without i.v. DC101 (1600 μg/25 gm mouse), or control IgG. For sarcoma studies, Sv129/Bl6 mice harboring MCA/129 tumors (100-150 mm^3) were treated with three i.p. injections of 240 mg/kg gemcitabine on a bi-weekly schedule with or without i.v. DC-101. Tumor volume, based on caliper measurements (length and width in millimeters), was calculated daily using the following formula: 0.5×length×width^2.
Tumor response to chemotherapy in the colorectal HCT116 xenograft model was evaluated. SCID^asmase+/+ or SCID^asmase−/− mice harboring HCT116 tumors (50-70 mm^3) were treated with paclitaxel (15/20/25 mg/kg i.p.) three times biweekly. […] To test that the ASMase requirement is mediated by the generation of ceramide, SCID^asmase+/+ mice harboring tumors as in FIG. 5A were treated with etoposide (35/35/50 mg/kg i.p.) biweekly in the presence of anti-ceramide or isotype control antibody.
To further test the ability of cisplatin to affect endothelial cell apoptosis and tumor response in vivo, effects of cisplatin on tumor growth were evaluated.
Thus, to further explore the notion of endothelial ASMase signaling requirement in response to chemotherapy, DC101 was used in combination with paclitaxel treatment.

[2] = tested on: ASMase; assay: ASMase activity radioenzymatic assay in BAEC; format: cell-based, bovine
Description: BAEC were established from the intima of bovine aorta as described^1. Stock cultures were grown in 100-mm dishes in Dulbecco's modified Eagle's medium (DMEM) supplemented with glucose (1 g/liter), 5% heat-inactivated calf serum (CS), penicillin (50 units/ml), and streptomycin (50 μg/ml). Purified human recombinant bFGF (1 ng/ml; R&D Systems, Inc., Minneapolis, MN) was added every other day during the exponential growth phase. […] These plateau phase cells were either used for experiments, or further sub-cultured (up to a maximum of 10 times) at a split ratio of 1:8. For sub-culturing, monolayers were dissociated with STV (0.05% trypsin and 0.02% EDTA in PBS) for 2-3 min at 22° C., washed twice in 5% CS-DMEM, and resuspended in DMEM with supplements as above. These mild conditions of trypsinization were sufficient to detach cells but not injure, stimulate, or affect cell function in a detectable way. BAEC were maintained at 37° C. in 10% CO2 humidified incubators.
ASMase activity was quantified by radioenzymatic assay using [^14C-methylcholine]sphingomyelin (Amersham) as substrate as described (Schissel et al. J Biol Chem, 271, 18431-18436, 1996). Cell lysates were incubated with [^14C-methylcholine]-sphingomyelin substrate (0.026 mCi/9.5 nmol) in 250 mM sodium acetate, pH 5.0 supplemented with 0.1% Triton X-100 and 1 mM EDTA or 0.1 mM ZnCl. Reactions were terminated after 1 h with CHCl3:MeOH:1N HCl (100:100:1, v/v/v), and [^14C-methylcholine]phosphocholine product in the aqueous layer of the Folch extract was quantified using a Beckman Packard 2200 CA Tricarb scintillation counter. For detection of ASMase activity in patients, 10 μl of serum was used.
To test the effect of chemotherapy on ASMase signaling and ceramide production, BAEC were treated with paclitaxel (100 nM) and ASMase activity was determined by radioenzymatic assay (Rotolo et al, infra) using [^14C-methylcholine] sphingomyelin (Amersham) as substrate (FIG. 1A). Induction of ASMase activity was observed within 5 minutes after treatment, and the activation continued for 30 minutes. Ceramide generation was monitored using the diacylglycerol kinase assay (Stancevic et al. PLoS ONE 8, e69025, 2013). […] In further support of this, pre-incubation of BAEC with nystatin prior to treatment with chemotherapy inhibits chemotherapy-induced apoptosis (FIG. 3).
To determine the generality of the results observed, experiments were carried out using an additional endothelial cell line, human coronary artery endothelial cells (HCAEC); experiments were also performed using a different chemotherapeutic agent. […] Next, HCAEC were treated with paclitaxel (100 nM) (data not shown) and etoposide (50 μM) (FIG. 1F), and ceramide generation was evaluated.
To further establish the generality of ASMase activation by various chemotherapeutic agents, BAEC and HCAEC were treated with increasing doses of cisplatin (0.1-50 μM) (data not shown). […] The ASMase/ceramide pathway was activated by chemotherapeutic agents that belong to different classes of chemotherapeutic agents, such as: taxanes, topoisomerase inhibitors, and nucleoside analog metabolic inhibitors. Since such chemotherapy agents are characterized by distinct mechanisms of action in tumor cells, it is surprising that a group of such distinct agents converges on a common molecular (ASMase/ceramide) axis in endothelium. The present confirmation that distinct chemotherapeutic agents activate the ASMase/ceramide pathway permits the present inventors to take into account the results of experiments using single dose radiotherapy, which has been reported to activate the same pathway (Rao, S. S. et al., Axitinib sensitization of high Single Dose Radiotherapy. Radiotherapy and Oncology: Journal of the European Society for Therapeutic Radiology and Oncology 111, 88-93, doi:10.1016/j.radonc.2014.02.010 (2014)).
Gemcitabine was able to activate ASMase in cultured endothelial cells. […]

SMILES | Tumor response, agent alone ([1]; SCID asmase+/+, 3×15 mg/kg paclitaxel or 1600 μg DC101 alone) | Complete tumor response after ([1]; SCID asmase+/+, paclitaxel 15/20/25 mg/kg i.p. three times biweekly) [days] | Tumor response ([1]; SCID asmase−/−, paclitaxel 15/20/25 mg/kg i.p. three times biweekly) | ASMase activation continued for ([2]; paclitaxel 100 nM) [min] | Induction of ASMase activity, time after treatment ([2]; paclitaxel 100 nM) [min] | Tumor growth delay ([1]; cisplatin 3×6 mg/kg) | ASMase activation ([2]; etoposide 50 μM, cisplatin 0.1-50 μM, gemcitabine 100 nM time-course)
CC(=O)O[C@H]1C(=O)[C@@]2(C)[C@H]([C@H](OC(=O)c3ccccc3)[C@]3(O)C[C@H](OC(=O)[C@H](O)[C@@H](NC(=O)c4ccccc4)c4ccccc4)C(C)=C1C3(C)C)[C@]1(OC(C)=O)CO[C@@H]1C[C@@H]2O [paclitaxel] | slightly affected | 10 ± 1 | no significant tumor response | 30 | ≤ 5 | – | –
N.N.[Cl][Pt][Cl] [cisplatin] | – | – | – | – | – | did not induce significant HCT116 tumor growth delay | failed to activate ASMase
